Measured values reported in US12427210B2, “Compounds comprising a fibroblast activation protein ligand and use thereof” (priority 2019, dated 2025).

Experiments:
[1] = target: T1, Matrix metalloprotease1 (Homo sapiens, UniProt P03956); details: 1 μM
T1 sequence (P03956 100-469): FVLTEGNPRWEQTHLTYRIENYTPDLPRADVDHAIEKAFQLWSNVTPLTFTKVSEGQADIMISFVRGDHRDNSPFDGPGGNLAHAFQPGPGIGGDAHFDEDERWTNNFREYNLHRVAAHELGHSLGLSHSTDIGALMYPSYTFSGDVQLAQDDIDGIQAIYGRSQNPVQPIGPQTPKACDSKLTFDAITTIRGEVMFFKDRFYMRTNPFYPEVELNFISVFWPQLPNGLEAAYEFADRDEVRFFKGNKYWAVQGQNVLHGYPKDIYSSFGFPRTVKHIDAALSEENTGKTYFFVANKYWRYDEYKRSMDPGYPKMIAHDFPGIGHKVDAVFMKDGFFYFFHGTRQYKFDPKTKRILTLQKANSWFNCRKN

[2] = target: T2, Matrix metalloprotease 9 (mutant Q279R) (Homo sapiens, UniProt P14780, Q279R); details: 100 nM
T2 sequence (P14780 94-707 Q279R): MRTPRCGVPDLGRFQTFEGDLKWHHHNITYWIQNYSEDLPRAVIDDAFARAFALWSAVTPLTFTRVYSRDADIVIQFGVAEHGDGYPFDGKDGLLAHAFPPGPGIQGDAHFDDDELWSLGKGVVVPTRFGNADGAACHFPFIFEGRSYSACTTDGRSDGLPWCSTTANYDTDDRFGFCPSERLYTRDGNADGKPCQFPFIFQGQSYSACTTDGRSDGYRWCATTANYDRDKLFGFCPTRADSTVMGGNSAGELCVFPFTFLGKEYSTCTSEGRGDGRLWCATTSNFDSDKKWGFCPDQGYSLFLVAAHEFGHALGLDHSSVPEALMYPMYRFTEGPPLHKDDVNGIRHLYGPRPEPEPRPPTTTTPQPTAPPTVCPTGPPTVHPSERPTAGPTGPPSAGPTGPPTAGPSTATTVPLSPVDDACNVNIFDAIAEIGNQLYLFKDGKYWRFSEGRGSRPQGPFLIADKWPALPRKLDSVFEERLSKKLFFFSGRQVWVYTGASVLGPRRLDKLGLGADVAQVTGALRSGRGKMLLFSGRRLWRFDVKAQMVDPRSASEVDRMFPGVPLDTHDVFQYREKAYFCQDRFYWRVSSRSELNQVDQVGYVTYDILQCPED

[3] = target: T3, Matrix metalloprotease 2 (Homo sapiens, UniProt P08253); details: 100 nM
T3 sequence (P08253 110-660): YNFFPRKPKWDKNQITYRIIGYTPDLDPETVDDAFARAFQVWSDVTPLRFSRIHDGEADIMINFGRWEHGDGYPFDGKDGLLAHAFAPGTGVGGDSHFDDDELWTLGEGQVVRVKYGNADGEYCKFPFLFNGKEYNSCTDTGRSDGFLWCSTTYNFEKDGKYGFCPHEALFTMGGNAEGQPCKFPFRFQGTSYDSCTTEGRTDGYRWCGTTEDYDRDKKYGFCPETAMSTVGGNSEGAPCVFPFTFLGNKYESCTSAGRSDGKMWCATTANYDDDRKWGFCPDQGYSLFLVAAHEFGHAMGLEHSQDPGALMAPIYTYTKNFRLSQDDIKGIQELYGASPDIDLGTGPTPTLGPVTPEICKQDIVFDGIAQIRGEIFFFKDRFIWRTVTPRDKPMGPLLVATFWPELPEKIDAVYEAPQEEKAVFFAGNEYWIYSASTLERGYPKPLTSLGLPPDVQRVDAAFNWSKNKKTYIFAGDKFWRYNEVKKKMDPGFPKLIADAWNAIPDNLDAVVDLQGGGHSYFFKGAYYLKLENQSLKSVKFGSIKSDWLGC

COc1ccc(S(=O)(=O)N(CC(=O)NO)CC(C)C)cc1 [NNGH]
Percentage inhibition (%), Reference [1]: 87% | Percentage inhibition (%), Reference [2]: 92% | Percentage inhibition (%), Reference [3]: 95%
